Source: paper PMC3565387 (Bioorganic & medicinal chemistry, 2012)

Legend:
[1] = system: human neutrophils; test: Ca2+ mobilization in human neutrophils; assay type: cell-based; details: % of response induced by 5 nM fMLF
[2] = molecular target: T1, FPR1 (Homo sapiens, UniProt P21462); test: Ca2+ mobilization in HL-60 cells transfected with FPR1; assay type: cell-based; details: HL-60-FPR1 cells; % of response induced by 5 nM fMLF
T1 sequence (P21462 1-350): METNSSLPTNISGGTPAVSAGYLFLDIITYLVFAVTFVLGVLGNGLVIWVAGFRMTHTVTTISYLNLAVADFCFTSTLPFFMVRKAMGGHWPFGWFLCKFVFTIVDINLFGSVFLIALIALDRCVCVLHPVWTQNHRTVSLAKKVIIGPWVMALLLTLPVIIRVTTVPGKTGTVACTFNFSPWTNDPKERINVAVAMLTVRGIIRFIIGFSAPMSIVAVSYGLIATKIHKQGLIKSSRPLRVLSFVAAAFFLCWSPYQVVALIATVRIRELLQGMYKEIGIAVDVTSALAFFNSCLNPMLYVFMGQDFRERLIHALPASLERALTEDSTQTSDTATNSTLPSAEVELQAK

[3] = molecular target: T2, FPR2 (Homo sapiens, UniProt P25090); test: Ca2+ mobilization in HL-60 cells transfected with FPR2; assay type: cell-based; details: HL-60-FPR2 cells; % of response induced by 5 nM WKYMVm
T2 sequence (P25090 1-351): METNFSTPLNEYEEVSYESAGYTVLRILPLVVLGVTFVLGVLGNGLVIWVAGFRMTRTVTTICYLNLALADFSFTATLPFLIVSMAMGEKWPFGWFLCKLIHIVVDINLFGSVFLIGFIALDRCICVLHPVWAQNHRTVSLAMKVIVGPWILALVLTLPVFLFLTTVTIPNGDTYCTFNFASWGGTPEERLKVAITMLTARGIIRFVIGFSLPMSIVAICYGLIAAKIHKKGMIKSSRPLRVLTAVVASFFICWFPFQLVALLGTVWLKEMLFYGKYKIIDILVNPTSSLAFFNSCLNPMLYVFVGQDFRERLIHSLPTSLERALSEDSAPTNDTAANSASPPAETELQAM

[4] = system: FPR2/ALX; details: read-out: EC50 at FPR2/ALX; endogenous ligand; cited from earlier work
[5] = molecular target: T1, FPR1; test: PathHunter β-arrestin recruitment in CHO-K1 FPR1 cells; assay type: cell-based; details: % of response induced by 5 nM WKYMVm
[6] = molecular target: T2, FPR2; test: PathHunter β-arrestin recruitment in CHO-K1 FPR2 cells; assay type: cell-based

Row | Ca2+ mobilization FPR1 efficacy [2] [%] | Ca2+ mobilization FPR2 efficacy [3] [%] | Structure (SMILES) | Ca2+ mobilization hPMN efficacy [1] [%] | other results
1 | 95 | 95 | CCC(C(=O)Nc1ccc(Br)cc1)n1nc(C)cc(Cc2cccc(OC)c2)c1=O (racemic) [(±)-5b, (±)-N-(4-Bromophenyl)-2-[5-(3-methoxybenzyl)-3-methyl-6-oxopyridazin-1(6H)-yl]butanamide] | 145 | 
2 |  |  | CCCCC[C@H](O)/C=C/C=C\C=C\C=C\[C@@H](O)[C@@H](O)CCCC(=O)O [LXA4, lipoxin A4] |  | EC50 [4]: 1 nM
3 |  |  | COc1cccc(Cc2cc(C)nn([C@H](C)C(=O)Nc3ccc(Br)cc3)c2=O)c1 [R-(−)-5a, R-(−)-N-(4-Bromophenyl)-2-[5-(3-methoxybenzyl)-3-methyl-6-oxopyridazin-1(6H)-yl]propanamide] | 110 | 
4 | 85 | 120 | CCC[C@H](C(=O)Nc1ccc(Br)cc1)n1nc(C)cc(Cc2cccc(OC)c2)c1=O [R-(−)-5c, R-(−)-N-(4-Bromophenyl)-2-[5-(3-methoxybenzyl)-3-methyl-6-oxopyridazin-1(6H)-yl]pentanamide] | 145 | β-Arrestin recruitment FPR1 efficacy [5]: 120%; β-Arrestin recruitment FPR2 efficacy ([6]; CHO-K1 FPR2 cells, % of response induced by 5 nM WKYMVm): 100%
5 |  |  | COc1cccc(Cc2cc(C)nn([C@@H](C)C(=O)Nc3ccc(Br)cc3)c2=O)c1 [S-(+)-5a, S-(+)-N-(4-Bromophenyl)-2-[5-(3-methoxybenzyl)-3-methyl-6-oxopyridazin-1(6H)-yl]propanamide] | 65 | 
6 |  |  | CSCC[C@H](NC=O)C(=O)N[C@@H](CC(C)C)C(=O)N[C@@H](Cc1ccccc1)C(=O)O [fMLF, N-formyl-methionine-leucine-phenylalanine, reference compound] |  | β-Arrestin recruitment FPR2 (in words) ([6]; FPR2 CHO-K1 cells): no recruitment
